From ChEMBL document CHEMBL1201862, “PubChem BioAssay data set” (2004)
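Interpolation was linear, between the two tested concentrations surrounding the appropriate level; five concentrations were tested over 48 hours in 96-well plates. GI50 = concentration required for 50% inhibition of growth.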 Calls of active or inactive are those of the source. Cut-off read from the data, not from the text of the source: active = GI50 up to about 1.1 µM and inactive = higher.

How the values were obtained:
Experiment in all cases: inhibition of tumour cell growth, NCI panel, 48 h
786-0 = test system: 786-0
A498 = test system: A498
A549 = test system: A549
ACHN = test system: ACHN
BT-549 = test system: BT-549
CAKI-1 = test system: CAKI-1
CCRF-CEM = test system: CCRF-CEM
COLO 205 = test system: COLO 205
DU-145 = test system: DU-145
EKVX = test system: EKVX
HCT-116 = test system: HCT-116
HCT-15 = test system: HCT-15
HL-60 = test system: HL-60
HOP-62 = test system: HOP-62
HOP-92 = test system: HOP-92
HT-29 = test system: HT-29
Hs-578T = test system: Hs-578T
IGROV-1 = test system: IGROV-1
KM12 = test system: KM12
LOX IMVI = test system: LOX IMVI
M14 = test system: M14
MCF7 = test system: MCF7
MDA-MB-231 = test system: MDA-MB-231
MDA-MB-435 = test system: MDA-MB-435
MDA-N = test system: MDA-N
MOLT-4 = test system: MOLT-4
Malme-3M = test system: Malme-3M
NCI-H226 = test system: NCI-H226
NCI-H23 = test system: NCI-H23
NCI-H460 = test system: NCI-H460
NCI-H522 = test system: NCI-H522
NCI/ADR-RES = test system: NCI/ADR-RES
OVCAR-3 = test system: OVCAR-3
OVCAR-4 = test system: OVCAR-4
OVCAR-5 = test system: OVCAR-5
OVCAR-8 = test system: OVCAR-8
PC-3 = test system: PC-3
SF-268 = test system: SF-268
SF-295 = test system: SF-295
SF-539 = test system: SF-539
SK-MEL-28 = test system: SK-MEL-28
SK-MEL-2 = test system: SK-MEL-2
SK-MEL-5 = test system: SK-MEL-5
SK-OV-3 = test system: SK-OV-3
SN12C = test system: SN12C
SNB-19 = test system: SNB-19
SNB-75 = test system: SNB-75
SW-620 = test system: SW-620
T47D = test system: T47D
TK-10 = test system: TK-10
U-251 = test system: U-251
UACC-257 = test system: UACC-257
UACC-62 = test system: UACC-62
UO-31 = test system: UO-31
K562 = test system: K562
RXF 393 = test system: RXF 393

CC1=C2C(=O)NN=C2CCN1c1ccc(Br)cc1
GI50 (786-0): > 100 µM (inactive)
GI50 (A498): 68.7 µM (inactive)
GI50 (A549): > 100 µM (inactive)
GI50 (ACHN): > 100 µM (inactive)
GI50 (BT-549): 3.14 µM (inactive)
GI50 (CAKI-1): > 100 µM (inactive)
GI50 (CCRF-CEM): 2.2 µM (inactive)
GI50 (COLO 205): > 100 µM (inactive)
GI50 (DU-145): > 100 µM (inactive)
GI50 (EKVX): > 100 µM (inactive)
GI50 (HCT-116): > 100 µM (inactive)
GI50 (HCT-15): 93.5 µM
GI50 (HL-60): 41.3 µM (inactive)
GI50 (HOP-62): > 100 µM (inactive)
GI50 (HOP-92): > 100 µM (inactive)
GI50 (HT-29): > 100 µM (inactive)
GI50 (Hs-578T): > 100 µM (inactive)
GI50 (IGROV-1): > 100 µM (inactive)
GI50 (KM12): > 100 µM (inactive)
GI50 (LOX IMVI): 62.8 µM (inactive)
GI50 (M14): > 100 µM (inactive)
GI50 (MCF7): > 100 µM (inactive)
GI50 (MDA-MB-231): > 100 µM (inactive)
GI50 (MDA-MB-435): > 100 µM (inactive)
GI50 (MDA-N): > 100 µM (inactive)
GI50 (MOLT-4): 9.62 µM (inactive)
GI50 (Malme-3M): 35.3 µM (inactive)
GI50 (NCI-H226): > 100 µM (inactive)
GI50 (NCI-H23): > 100 µM (inactive)
GI50 (NCI-H460): > 100 µM (inactive)
GI50 (NCI-H522): > 100 µM (inactive)
GI50 (NCI/ADR-RES): > 100 µM (inactive)
GI50 (OVCAR-3): > 100 µM (inactive)
GI50 (OVCAR-4): > 100 µM (inactive)
GI50 (OVCAR-5): > 100 µM (inactive)
GI50 (OVCAR-8): > 100 µM (inactive)
GI50 (PC-3): > 100 µM (inactive)
GI50 (SF-268): > 100 µM (inactive)
GI50 (SF-295): > 100 µM (inactive)
GI50 (SF-539): > 100 µM (inactive)
GI50 (SK-MEL-28): > 100 µM (inactive)
GI50 (SK-MEL-2): > 100 µM (inactive)
GI50 (SK-MEL-5): > 100 µM (inactive)
GI50 (SK-OV-3): > 100 µM (inactive)
GI50 (SN12C): > 100 µM (inactive)
GI50 (SNB-19): > 100 µM (inactive)
GI50 (SNB-75): > 100 µM (inactive)
GI50 (SW-620): > 100 µM (inactive)
GI50 (T47D): 70.3 µM (inactive)
GI50 (TK-10): > 100 µM (inactive)
GI50 (U-251): > 100 µM (inactive)
GI50 (UACC-257): > 100 µM (inactive)
GI50 (UACC-62): > 100 µM (inactive)
GI50 (UO-31): 54.3 µM (inactive)

C[C@]1(S(=O)(=O)c2ccccc2)C[C@H]2N(Cc3ccccc3)[C@@H]1CCC21OCCO1
GI50 (786-0): > 100 µM (inactive)
GI50 (A549): 86.1 µM (inactive)
GI50 (ACHN): > 100 µM (inactive)
GI50 (BT-549): > 100 µM (inactive)
GI50 (CAKI-1): > 100 µM (inactive)
GI50 (CCRF-CEM): 49.1 µM (inactive)
GI50 (COLO 205): 50.5 µM (inactive)
GI50 (DU-145): > 100 µM (inactive)
GI50 (EKVX): > 100 µM (inactive)
GI50 (HCT-116): > 100 µM (inactive)
GI50 (HCT-15): 63.1 µM
GI50 (HL-60): 13.6 µM (inactive)
GI50 (HOP-62): > 100 µM (inactive)
GI50 (HOP-92): 88.1 µM (inactive)
GI50 (HT-29): 58.6 µM (inactive)
GI50 (Hs-578T): > 100 µM (inactive)
GI50 (IGROV-1): > 100 µM (inactive)
GI50 (K562): > 100 µM (inactive)
GI50 (KM12): 58.2 µM (inactive)
GI50 (LOX IMVI): > 100 µM (inactive)
GI50 (M14): > 100 µM (inactive)
GI50 (MCF7): 78.9 µM (inactive)
GI50 (MDA-MB-231): > 100 µM (inactive)
GI50 (MDA-MB-435): > 100 µM (inactive)
GI50 (MDA-N): > 100 µM (inactive)
GI50 (MOLT-4): 30.8 µM (inactive)
GI50 (Malme-3M): > 100 µM (inactive)
GI50 (NCI-H23): 60.5 µM (inactive)
GI50 (NCI-H460): 67.9 µM (inactive)
GI50 (NCI-H522): 72.6 µM (inactive)
GI50 (NCI/ADR-RES): 46.9 µM (inactive)
GI50 (OVCAR-3): > 100 µM (inactive)
GI50 (OVCAR-4): 36.3 µM (inactive)
GI50 (OVCAR-5): > 100 µM (inactive)
GI50 (OVCAR-8): > 100 µM (inactive)
GI50 (PC-3): 70.5 µM (inactive)
GI50 (RXF 393): > 100 µM (inactive)
GI50 (SF-268): > 100 µM (inactive)
GI50 (SF-295): 90.4 µM (inactive)
GI50 (SK-MEL-28): > 100 µM (inactive)
GI50 (SK-MEL-2): > 100 µM (inactive)
GI50 (SK-MEL-5): 75.2 µM (inactive)
GI50 (SK-OV-3): > 100 µM (inactive)
GI50 (SN12C): > 100 µM (inactive)
GI50 (SNB-19): > 100 µM (inactive)
GI50 (SNB-75): > 100 µM (inactive)
GI50 (SW-620): 94.6 µM (inactive)
GI50 (T47D): 41.6 µM (inactive)
GI50 (U-251): > 100 µM (inactive)
GI50 (UACC-257): 22.3 µM (inactive)
GI50 (UACC-62): > 100 µM (inactive)
GI50 (UO-31): > 100 µM (inactive)
